Assay results published in doi:10.1101/2025.10.28.685111v1.
Like-named read-outs stand apart in the source and are kept apart here.

Tests used:
[1] = system: T1, Salmonella Typhimurium ATCC 14028 (STm); experiment: microbe, parasite or virus in culture; design: Broth microdilution growth inhibition of STm at 500 uM in MHB, M9A or M9I, OD600; conditions: Salmonella enterica
T1 construct: ATCC 14028
Procedure: Antimicrobial susceptibility was assessed using the traditional CLSI minimum inhibitory concentration (MIC) microplate dilution methods with a few modifications ([59]). Briefly, each compound (dissolved in MQ H2O for all pantetheinamides, or DMSO for pantothenamides) was serially diluted in 96-well plates to the desired concentrations. In the case of checkerboard assays, secondary compounds were separately diluted and added to the plate. Mid-exponential phase media-adapted bacteria were added at 5 × 10^5 CFU/mL and in the case of M9I or M9A cultures, the plates were sealed with a gas permeable moisture barrier seal (FroggaBio, Canada) to prevent excessive evaporation, before incubation at 37 °C and 350 rpm, using a tabletop orbital plate shaker (OHAUS, USA). Growth was quantified based on absorbance at 600 nm (OD600) using a microplate reader. The plate was monitored until there was visible growth in the untreated control, but without allowing for overgrowth: ∼14-16h (OD600 > 0.3) in MHB, ∼36 h (OD600 > 0.2) in M9A, and ∼72-120 h (OD600 > 0.15) in M9I. The IC50 was determined using a four-parameter logarithmic curve on Prism v9.0. All experiments were done at minimum in a biological triplicate. […] To accomplish this, the compounds were screened for their ability to reduce STm growth at a high concentration (500 μM) in various media that reflect nutrient-related facets of either extracellular or intracellular environments (Fig. 2a). Mueller-Hinton broth (MHB)—the medium most widely employed for antibacterial testing—was used to represent nutrient-rich extracellular environments such as the gut, while aspects of the nutrient-limited intramacrophage environment were mimicked by using M9-minimal media containing either acetate (M9A) or itaconate (M9I) as the sole carbon source. Growth in M9A requires the glyoxylate shunt, simulating the use of fatty acids ([33]), whereas growth in M9I, as shown in our previous study, requires an active itaconate-degradation pathway and induces excess oxidative stress that is reflective of the intramacrophage environment ([34]). Of the 75 compounds tested, 31 inhibited growth (by >50%) in M9I, six in M9A, and one in MHB. […] In particular, the pantothenamides 6-13 and 6-14 were active in M9A as well as M9I, with 6-13 being the only MHB active compounds. The other M9A active compounds were 1-03 and 1-17 from the “nitro” category and 4-02 and 4-08 from the “fluoro-alkyl” category.  Fig. 2: Screening the pantetheinamides library. a, Percentage growth inhibition of STm by each of the inhibitors in the library, tested at 500 µM in MHB, M9A, or M9I as the sole carbon source. Inhibition % values are summarized in Supplementary Data 1. b, The IC50 in M9I of a subset of the inhibitor library. The full dataset is shown in Fig. S1 and summarized in Supplementary Data 2. c, Dose-response curves in M9I, M9A, and MHB for selected inhibitors, fit to a four-parameter logarithmic curve. d, Tabulated IC50 (± 95% CI), cytotoxicity and selectivity index (given as the cytoxocity/IC50 in M9I) for the same inhibitors as in c. […] The full dataset is shown in Fig. S4a. g, Sample of results summarized in f showing the CFU of surviving STm inside the compound treated macrophages after 22 h. Data bars show the geometric mean of CFU/mL with error bars depicting the 95% CI. The vehicle control (± 95% CI) is shown as the red line. All experiments were independently repeated a minimum of 3 times, where n ≥ 4 for each condition. Significant results were determined using a one-way ANOVA with Dunnett’s multiple comparisons against the vehicle. ✱, p < 0.05; ✱✱, p < 0.01; ✱✱✱, p < 0.001; ✱✱✱✱, p < 0.0001; ns, non-significant, p > 0.05. “X” denotes that a concentration was omitted from the experiment due to toxicity.

[2] = system: T1, Salmonella Typhimurium ATCC 14028 (STm); experiment: microbe, parasite or virus in culture; design: Broth microdilution dose-response growth inhibition of STm in M9I, OD600, four-parameter fit; conditions: Salmonella enterica, read-out: IC50 (µM)
Procedure: Antimicrobial susceptibility was assessed using the traditional CLSI minimum inhibitory concentration (MIC) microplate dilution methods with a few modifications ([59]). Briefly, each compound (dissolved in MQ H2O for all pantetheinamides, or DMSO for pantothenamides) was serially diluted in 96-well plates to the desired concentrations. In the case of checkerboard assays, secondary compounds were separately diluted and added to the plate. Mid-exponential phase media-adapted bacteria were added at 5 × 10^5 CFU/mL and in the case of M9I or M9A cultures, the plates were sealed with a gas permeable moisture barrier seal (FroggaBio, Canada) to prevent excessive evaporation, before incubation at 37 °C and 350 rpm, using a tabletop orbital plate shaker (OHAUS, USA). Growth was quantified based on absorbance at 600 nm (OD600) using a microplate reader. The plate was monitored until there was visible growth in the untreated control, but without allowing for overgrowth: ∼14-16h (OD600 > 0.3) in MHB, ∼36 h (OD600 > 0.2) in M9A, and ∼72-120 h (OD600 > 0.15) in M9I. The IC50 was determined using a four-parameter logarithmic curve on Prism v9.0. All experiments were done at minimum in a biological triplicate. […] Consequently, the activity was reported as an IC50 value, rather than traditional MICs. […] All other categories had 2-4 molecules with sub-100 μM IC50 values. The general trend in activities for the substituents β to the acyl amide saw CF3 (e.g. 4-01) > thiazole (e.g. 5-01) > NO2 (e.g. 1-01) > CH3 (e.g. 3-01). […] Replacement of the thioester with either a sulfonamide or triazole, rather than an amide, was detrimental to activity. […] Furthermore, increasing the conformational rigidity of the α-substituent correlated with higher IC50 values (e.g, 1-14, methyl < 1-15, dimethyl < 1-16, cyclo  Fig. 2: Screening the pantetheinamides library. a, Percentage growth inhibition of STm by each of the inhibitors in the library, tested at 500 µM in MHB, M9A, or M9I as the sole carbon source. Inhibition % values are summarized in Supplementary Data 1. b, The IC50 in M9I of a subset of the inhibitor library. The full dataset is shown in Fig. S1 and summarized in Supplementary Data 2. c, Dose-response curves in M9I, M9A, and MHB for selected inhibitors, fit to a four-parameter logarithmic curve. d, Tabulated IC50 (± 95% CI), cytotoxicity and selectivity index (given as the cytoxocity/IC50 in M9I) for the same inhibitors as in c. […] The full dataset is shown in Fig. S4a. g, Sample of results summarized in f showing the CFU of surviving STm inside the compound treated macrophages after 22 h. Data bars show the geometric mean of CFU/mL with error bars depicting the 95% CI. The vehicle control (± 95% CI) is shown as the red line. All experiments were independently repeated a minimum of 3 times, where n ≥ 4 for each condition. Significant results were determined using a one-way ANOVA with Dunnett’s multiple comparisons against the vehicle. ✱, p < 0.05; ✱✱, p < 0.01; ✱✱✱, p < 0.001; ✱✱✱✱, p < 0.0001; ns, non-significant, p > 0.05. “X” denotes that a concentration was omitted from the experiment due to toxicity.

[3] = M9A, acetate minimal medium, 36 h, read-out: % Growth Inhibition (Avg) / M9A
[4] = M9I, itaconate minimal medium, 72-120 h, read-out: % Growth Inhibition (Avg) / M9I
[5] = MHB, nutrient-rich medium, 14-16 h, read-out: % Growth Inhibition (Avg) / MHB

Compound: CC(C)(CO)[C@@H](O)C(=O)NCCC(=O)NCCNC(=O)/C=C/C(F)(F)F [4-04]
- inhibition at 500 µM [1, 3]: 37%
- inhibition at 500 µM [1, 4]: 94%
- inhibition at 500 µM [1, 5]: 0%
- IC50 [2]: 5.1 µM

Compound: CCCCCCCC(=O)NCCNC(=O)[C@H](O)C(C)(C)CO [6-14]
- inhibition at 500 µM [1, 3]: 98%
- inhibition at 500 µM [1, 4]: 99%
- inhibition at 500 µM [1, 5]: 16%
- IC50 [2]: 1.1 µM

Compound: CCCCCCCNC(=O)CCNC(=O)[C@H](O)C(C)(C)CO [6-13]
- inhibition at 500 µM [1, 3]: 100%
- inhibition at 500 µM [1, 4]: 100%
- inhibition at 500 µM [1, 5]: 90%
- IC50 [2]: 0.13 µM

Compound: CC(C)(CO)[C@@H](O)C(=O)NCCC(=O)NCCNC(=O)C1CC1(F)F (some centres unmarked) [4-10]
- inhibition at 500 µM [1, 3]: 0%
- inhibition at 500 µM [1, 4]: 86%
- inhibition at 500 µM [1, 5]: 11%
- IC50 [2]: 29 µM

Compound: CC(C)(CO)[C@@H](O)C(=O)NCCC(=O)NCCNC(=O)C(F)C(F)(F)F (some centres unmarked) [4-07]
- inhibition at 500 µM [1, 3]: 15%
- inhibition at 500 µM [1, 4]: 94%
- inhibition at 500 µM [1, 5]: 1%
- IC50 [2]: 30 µM
